Measurements taken from patent US10669272B2, “Substituted naphthyridinone compounds useful as T cell activators” (BRISTOL-MYERS SQUIBB COMPANY, priority 2018, dated 2020).
Like-named read-outs stand apart in the source and are kept apart here.

Legend:
human DGKζ = target: T1, human DGKζ (Homo sapiens, UniProt Q13574); assay: DGKζ LIPGLO assay (extruded liposome substrate), in vitro DGK inhibition; assay type: biochemical; details: read-out: DGKz LIPGLO IC50
T1 construct: TVMV protease cleavage site (C); Hexa-His (C); made in house; host or cells: Sf9 insect cells (baculovirus, Bac-to-Bac)

Human venous whole blood = assay: Human whole blood IFN-γ assay; assay type: cell-based; details: human whole blood, read-out: INFg Whole Blood Normalized Agonist EC50;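 further: blood from healthy donors exposed to compound for 1 h before stimulation with anti-CD3 and anti-CD28 at 1 µg/mL each, IFN-γ quantified in supernatant by AlphaLISA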
human DGKα = target: T2, human DGKα (Homo sapiens, UniProt P23743); assay: DGKα LIPGLO assay (extruded liposome substrate), in vitro DGK inhibition; assay type: biochemical; details: read-out: DGKa LIPGLO IC50
T2 construct: TVMV protease cleavage site (C); Hexa-His (C); made in house; host or cells: Sf9 insect cells (baculovirus, Bac-to-Bac)

[1] = normalized to 3 μM reference compound with anti-CD3 plus anti-CD28 as 100% activation

T2 sequence (P23743 with tags, fused parts or gaps): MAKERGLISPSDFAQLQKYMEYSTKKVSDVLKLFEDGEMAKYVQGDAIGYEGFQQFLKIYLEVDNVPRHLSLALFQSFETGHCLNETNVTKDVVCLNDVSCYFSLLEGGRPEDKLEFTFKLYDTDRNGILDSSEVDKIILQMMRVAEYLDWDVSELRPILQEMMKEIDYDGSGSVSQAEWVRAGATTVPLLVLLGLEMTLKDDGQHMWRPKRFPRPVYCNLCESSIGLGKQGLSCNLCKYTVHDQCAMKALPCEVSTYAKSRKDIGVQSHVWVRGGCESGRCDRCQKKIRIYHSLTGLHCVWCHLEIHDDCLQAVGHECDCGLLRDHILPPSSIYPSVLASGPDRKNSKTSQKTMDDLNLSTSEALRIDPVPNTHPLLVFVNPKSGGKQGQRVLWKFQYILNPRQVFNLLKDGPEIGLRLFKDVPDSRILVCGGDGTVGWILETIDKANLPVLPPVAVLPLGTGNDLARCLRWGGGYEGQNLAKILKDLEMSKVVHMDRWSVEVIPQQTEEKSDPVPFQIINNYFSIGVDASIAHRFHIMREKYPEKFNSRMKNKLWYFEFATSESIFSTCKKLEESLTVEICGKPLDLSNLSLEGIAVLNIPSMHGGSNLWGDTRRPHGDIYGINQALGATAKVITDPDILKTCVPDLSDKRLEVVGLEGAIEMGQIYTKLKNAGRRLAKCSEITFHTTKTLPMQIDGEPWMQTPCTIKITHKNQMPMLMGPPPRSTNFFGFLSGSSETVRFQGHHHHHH
T1 sequence (Q13574 with tags, fused parts or gaps isoform Q13574-4): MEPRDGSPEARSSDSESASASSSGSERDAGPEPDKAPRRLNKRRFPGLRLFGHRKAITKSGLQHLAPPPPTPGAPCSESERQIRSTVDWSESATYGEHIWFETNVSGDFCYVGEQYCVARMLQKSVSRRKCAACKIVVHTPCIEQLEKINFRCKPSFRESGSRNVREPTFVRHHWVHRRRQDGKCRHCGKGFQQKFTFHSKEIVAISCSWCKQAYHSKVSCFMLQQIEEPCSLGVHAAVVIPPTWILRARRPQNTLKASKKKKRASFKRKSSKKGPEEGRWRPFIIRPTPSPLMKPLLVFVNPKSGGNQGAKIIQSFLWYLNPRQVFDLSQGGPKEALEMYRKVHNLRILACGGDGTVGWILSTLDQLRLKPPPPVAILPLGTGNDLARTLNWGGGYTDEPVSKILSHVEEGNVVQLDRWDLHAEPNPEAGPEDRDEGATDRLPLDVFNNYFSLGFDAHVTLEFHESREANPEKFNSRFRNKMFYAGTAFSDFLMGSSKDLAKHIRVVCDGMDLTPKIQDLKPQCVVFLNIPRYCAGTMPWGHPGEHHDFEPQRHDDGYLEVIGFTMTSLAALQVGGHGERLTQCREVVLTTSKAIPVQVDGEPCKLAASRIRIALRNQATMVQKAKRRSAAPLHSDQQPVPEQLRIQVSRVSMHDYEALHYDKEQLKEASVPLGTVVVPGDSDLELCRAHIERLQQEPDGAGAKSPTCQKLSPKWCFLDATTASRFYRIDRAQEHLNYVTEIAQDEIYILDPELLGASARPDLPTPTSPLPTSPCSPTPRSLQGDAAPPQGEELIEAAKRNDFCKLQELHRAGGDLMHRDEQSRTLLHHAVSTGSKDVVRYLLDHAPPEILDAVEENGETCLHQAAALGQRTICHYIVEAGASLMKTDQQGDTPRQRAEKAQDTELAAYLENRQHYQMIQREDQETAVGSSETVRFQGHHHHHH

SMILES | IC50 (human DGKζ; liposome (LIPGLO) assay) | IC50 (human DGKα; liposome (LIPGLO) assay) | further results
C[C@@H]1CN(c2c(F)c(=O)n(C)c3ccc(C#N)nc23)[C@@H](C)CN1C(c1ccc(F)cc1)c1ccc(C(F)(F)F)cc1 (stereo partly drawn) [Example 326, 7-fluoro-8-((2S,5R)-4-((4-fluorophenyl)(4-(trifluoromethyl)phenyl)methyl)-2,5-dimethylpiperazin-1-yl)-5-methyl-6-oxo-5,6-dihydro-1,5-naphthyridine-2-carbonitrile] | 6.5 µM |  | EC50 (Human venous whole blood; [1]): 20 µM
COCc1ccc(C(C)N2C[C@H](C)N(c3cc(=O)n(C)c4ccc(C#N)nc34)C[C@H]2C)cc1 (some centres unmarked) [Example 1266] |  |  | EC50 (Human venous whole blood; [1]): 1.4 µM
CCC(c1cc(Cl)cc2c1OCC2)N1C[C@H](C)N(c2cc(=O)n(C)c3ccc(C#N)nc23)C[C@H]1C (single isomer, unassigned) [Example 357] | 0.89 µM |  | EC50 (Human venous whole blood; [1]): 13 µM
COc1ccc(C(c2ccc(F)cc2)N2C[C@H](C)N(c3c(C#N)c(=O)n(C)c4ccc(C#N)nc34)C[C@H]2C)nc1 (some centres unmarked) [Example 838] |  |  | IC50 (human DGKζ; DGKζ liposome (LIPGLO) assay): 2.1 µM; EC50 (Human venous whole blood; Homo sapiens, 24 h, anti-CD3 plus anti-CD28, 24 hours, 3 μM reference compound = 100% activation): 17 µM
C[C@@H]1CN(c2cc(=O)n(C)c3ccc(C#N)nc23)[C@@H](C)CN1C(c1ccccc1)c1ccc(F)cc1 (single isomer, unassigned) [Example 184] |  |  | EC50 (Human venous whole blood; [1]): 0.57 µM
CCC(c1cc(OC(F)(F)F)ccc1F)N1C[C@H](C)N(c2cc(=O)n(C)c3ccc(C#N)nc23)C[C@H]1C (some centres unmarked) [Example 1206] |  |  | EC50 (Human venous whole blood; [1]): 2.1 µM
C[C@@H]1CN(c2c(C#N)c(=O)n(C)c3ccc(C#N)nc23)CCN1C(c1ccccc1)c1ccc(Cl)cc1 (single isomer, unassigned) [Example 887] |  |  | EC50 (Human venous whole blood; anti-CD3 plus anti-CD28, 24 hours, 3 μM reference compound = 100% activation): 1.6 µM
C[C@@H]1CN(c2c(C#N)c(=O)n(C)c3ccc(C#N)nc23)CCN1C(c1ccc(F)cc1)c1cncnc1 (stereo partly drawn) [Example 317, 8-((3R)-4-((4-fluorophenyl)(pyrimidin-5-yl)methyl)-3-methylpiperazin-1-yl)-5-methyl-6-oxo-5,6-dihydro-1,5-naphthyridine-2,7-dicarbonitrile] | 13 µM | 3.8 µM | 
Cc1cccc(CN2CCN(c3c(C#N)c(=O)n(C)c4ccc(C#N)nc34)C[C@H]2C)c1 [Example 1012] |  |  | IC50 (human DGKα; DGKα liposome (LIPGLO) assay): 0.35 µM; IC50 (human DGKζ; DGKζ liposome (LIPGLO) assay): 1.4 µM
CCC(c1cc(Cl)cc2c1OCC2)N1C[C@H](C)N(c2cc(=O)n(C)c3ccc(C#N)nc23)C[C@H]1C (stereo partly drawn) [Example 353, 8-((2S,5R)-4-(1-(5-chloro-2,3-dihydrobenzofuran-7-yl)propyl)-2,5-dimethylpiperazin-1-yl)-5-methyl-6-oxo-5,6-dihydro-1,5-naphthyridine-2-carbonitrile] | 1.4 µM | 72 µM | 
C[C@@H]1CN(c2cc(=O)n(C)c3ccc(C#N)nc23)[C@@H](C)CN1C(c1ccc(F)cc1)c1noc(C(C)(C)C)n1 (single isomer, unassigned) [Example 765] |  |  | IC50 (human DGKα; DGKα liposome (LIPGLO) assay): 0.62 µM; IC50 (human DGKζ; DGKζ liposome (LIPGLO) assay): 0.13 µM
C[C@@H]1CN(c2cc(=O)n(C)c3ccc(C#N)nc23)[C@@H](C)CN1C(c1ccc(F)cc1)c1nnc(C2CC2)s1 (stereo partly drawn) [Example 774, 8-((2S,5R)-4-((5-cyclopropyl-1,3,4-thiadiazol-2-yl)(4-fluorophenyl)methyl)-2,5-dimethylpiperazin-1-yl)-5-methyl-6-oxo-5,6-dihydro-1,5-naphthyridine-2-carbonitrile] |  |  | IC50 (human DGKα; DGKα liposome (LIPGLO) assay): 0.63 µM; IC50 (human DGKζ; DGKζ liposome (LIPGLO) assay): 1.1 µM
CC(C)Oc1ccccc1CN1C[C@H](C)N(c2cc(=O)n(C)c3ccc(C#N)nc23)C[C@H]1C [Example 595] | 4.7 µM | 0.39 µM | 
CC(c1ccc(Cl)cc1)N1CCN(c2c(C#N)c(=O)n(C)c3ccc(C#N)nc23)C[C@H]1C (single isomer, unassigned) [Example 978] |  |  | IC50 (human DGKα; DGKα liposome (LIPGLO) assay): 1.3 µM; IC50 (human DGKζ; DGKζ liposome (LIPGLO) assay): 4.9 µM
C[C@@H]1CN(c2cc(=O)n(C)c3ccc(C#N)nc23)[C@@H](C)CN1C(c1ccc(F)cc1)c1cncc(F)c1 (stereo partly drawn) [Example 400, 8-((2S,5R)-4-((4-fluorophenyl)(5-fluoropyridin-3-yl)methyl)-2,5-dimethylpiperazin-1-yl)-5-methyl-6-oxo-5,6-dihydro-1,5-naphthyridine-2-carbonitrile] | 3.2 µM | 4.2 µM | 
C[C@@H]1CN(c2c(C#N)c(=O)n(C)c3ccc(C#N)nc23)CCN1C(c1ccc(Cl)cc1)c1ccc(F)cn1 (single isomer, unassigned) [Example 901] |  |  | IC50 (human DGKα; DGKα liposome (LIPGLO) assay): 0.39 µM; IC50 (human DGKζ; DGKζ liposome (LIPGLO) assay): 1.7 µM
C[C@@H]1CN(c2cc(=O)n(C)c3ccc(C#N)nc23)[C@@H](C)CN1C(c1ccc(OC(F)(F)F)cc1)c1ccccn1 (stereo partly drawn) [Example 377, 8-((2S,5R)-2,5-dimethyl-4-(pyridin-2-yl(4-(trifluoromethoxy)phenyl)methyl)piperazin-1-yl)-5-methyl-6-oxo-5,6-dihydro-1,5-naphthyridine-2-carbonitrile] | 3.9 µM | 0.31 µM | 
Cc1cc(C(C)N2C[C@H](C)N(c3cc(=O)n(C)c4ccc(C#N)nc34)C[C@H]2C)no1 (single isomer, unassigned) [Example 648] | 3.9 µM | 0.59 µM | 
CCOc1cccc(CN2C[C@H](C)N(c3cc(=O)n(C)c4ccc(C#N)nc34)C[C@H]2C)c1 [Example 599] | 1.9 µM | 3.1 µM | 
CC(c1cccc(C(F)(F)F)c1)N1CCN(c2c(C#N)c(=O)n(C)c3ccc(C#N)nc23)C[C@H]1C (single isomer, unassigned) [Example 971] |  |  | IC50 (human DGKα; DGKα liposome (LIPGLO) assay): 1.8 µM; IC50 (human DGKζ; DGKζ liposome (LIPGLO) assay): 4.9 µM
CC(c1ccc(OC(F)F)cn1)N1C[C@H](C)N(c2cc(=O)n(C)c3ccc(C#N)nc23)C[C@H]1C (some centres unmarked) [Example 653] | 1.1 µM | 0.094 µM | 
C[C@@H]1CN(c2cc(=O)n(C)c3ccc(C#N)nc23)[C@@H](C)CN1C(c1ccc(Cl)cc1)c1ccc(F)c2c1OC(C)(C)C2 (single isomer, unassigned) [Example 459] | 1.1 µM | 36 µM | 
Cc1ncc(C(c2ccc(Cl)cc2)N2C[C@H](C)N(c3cc(=O)n(C)c4ccc(C#N)nc34)C[C@H]2C)cn1 (stereo partly drawn) [Example 385, 8-((2S,5R)-4-((4-chlorophenyl) (2-methylpyrimidin-5-yl)methyl)-2,5-dimethylpiperazin-1-yl)-5-methyl-6-oxo-5,6-dihydro-1,5-naphthyridine-2-carbonitrile] | 6.3 µM | 3.3 µM | 

Continued, in another order:

IC50 (human DGKζ; liposome (LIPGLO) assay) | IC50 (human DGKα; liposome (LIPGLO) assay) | SMILES | further results
0.16 µM |  | CC[C@@H]1CN(c2cc(=O)n(C)c3ccc(C#N)nc23)[C@@H](C)CN1C(c1ccc(Cl)cc1)c1ccc(F)cn1 (some centres unmarked) [Example 1110] | EC50 (Human venous whole blood; [1]): 1.3 µM
0.17 µM |  | CC[C@@H]1CN(c2cc(=O)n(C)c3ccc(C#N)nc23)[C@@H](C)CN1Cc1ccc(OC(F)(F)F)cc1F [Example 1347] | EC50 (Human venous whole blood; Homo sapiens, 24 h, normalized to 3 μM reference compound with anti-CD3 plus anti-CD28 as 100% activation): 0.73 µM
30 µM | > 250 µM | Cn1c(=O)cc(N2CCN(C(c3ccc(F)cc3)c3ccc(F)cc3)C(COC(F)F)C2)c2nc(C#N)ccc21 (single isomer, unassigned) [Example 1186] | 
0.011 µM | 0.011 µM | CC[C@H]1CN(C(c2ccc(F)cc2)c2csc(C(F)(F)F)n2)[C@H](CC)CN1c1cc(=O)n(C)c2ccc(C#N)nc12 (single isomer, unassigned) [Example 1361] | 
17 µM | 110 µM | COc1ccc(C(C)N2C[C@H](C)N(c3cc(=O)n(C)c4ccc(C#N)nc34)C[C@H]2C)cc1OCCN1CCOCC1 (some centres unmarked) [Example 1304] | 
0.016 µM | 0.022 µM | COC[C@@H]1CN(c2cc(=O)n(C)c3ccc(C#N)nc23)[C@@H](C)CN1C(c1ccc(F)cc1)c1nc(C2CC2)no1 (stereo partly drawn) [Example 1393, 8-((2S,5S)-4-((3-cyclopropyl-1,2,4-oxadiazol-5-yl)(4-fluorophenyl)methyl)-5-(methoxymethyl)-2-methylpiperazin-1-yl)-5-methyl-6-oxo-5,6-dihydro-1,5-naphthyridine-2-carbonitrile] | 
0.55 µM | 0.48 µM | COC[C@@H]1CN(c2cc(=O)n(C)c3ccc(C#N)nc23)[C@@H](C)CN1C(C)c1ccc(OC(F)(F)F)cc1 (single isomer, unassigned) [Example 1162] | 
0.6 µM | 3.8 µM | CC(c1cc(F)c(F)c(F)c1)N1C[C@H](C)N(c2cc(=O)n(C)c3ccc(C#N)nc23)C[C@H]1C (single isomer, unassigned) [Example 1241] | 
32 µM | 6.6 µM | Cc1ccc(C(c2cccc(F)c2)N2C[C@H](C)N(c3cc(=O)n(C)c4ccc(C#N)nc34)C[C@H]2CO)nc1 (some centres unmarked) [Example 1153] | 
0.62 µM | 10 µM | C[C@@H]1CN(C(c2ccc(F)cc2)c2ccc(C#N)cc2)[C@@H](CO)CN1c1cc(=O)n(C)c2ccc(C#N)nc12 (single isomer, unassigned) [Example 1177] | 
0.04 µM | 0.023 µM | CCC(c1ccc(OC(F)(F)F)cc1F)N1C[C@H](CC)N(c2cc(=O)n(C)c3ccc(C#N)nc23)C[C@H]1CC (single isomer, unassigned) [Example 1057] | 
0.57 µM | 0.75 µM | CCC(c1ccc(OC(F)(F)F)cc1F)N1C[C@H](CC)N(c2cc(=O)n(C)c3ccc(C#N)nc23)C[C@H]1CC (single isomer, unassigned) [Example 1058] | 
1.4 µM | 1.4 µM | C[C@@H]1CN(c2cc(=O)n(C)c3ccc(C#N)nc23)[C@@H](C)CN1C(CO)c1ccc(C(F)(F)F)cn1 (stereo partly drawn) [Example 1279, 8-((2S,5R)-4-(2-hydroxy-1-(5-(trifluoromethyl)pyridin-2-yl)ethyl)-2,5-dimethylpiperazin-1-yl)-5-methyl-6-oxo-5,6-dihydro-1,5-naphthyridine-2-carbonitrile] | 
